Reference: US20250042895A1, “INHIBITORS OF ULK1 AND METHODS OF USE” (H. LEE MOFFITT CANCER CENTER AND RESEARCH INSTITUTE, INC., priority 2021, published 2025)

Assays:
GST-ULK1 = target: T1, GST-ULK1 (Homo sapiens, UniProt O75385); assay: LanthaScreen ULK1 inhibitor assay; type: biochemical; conditions: 5 nM GST-ULK1, 30 nM tracer, 20 μM ATP, 1 hr room temperature
T1 sequence (O75385 1-1050): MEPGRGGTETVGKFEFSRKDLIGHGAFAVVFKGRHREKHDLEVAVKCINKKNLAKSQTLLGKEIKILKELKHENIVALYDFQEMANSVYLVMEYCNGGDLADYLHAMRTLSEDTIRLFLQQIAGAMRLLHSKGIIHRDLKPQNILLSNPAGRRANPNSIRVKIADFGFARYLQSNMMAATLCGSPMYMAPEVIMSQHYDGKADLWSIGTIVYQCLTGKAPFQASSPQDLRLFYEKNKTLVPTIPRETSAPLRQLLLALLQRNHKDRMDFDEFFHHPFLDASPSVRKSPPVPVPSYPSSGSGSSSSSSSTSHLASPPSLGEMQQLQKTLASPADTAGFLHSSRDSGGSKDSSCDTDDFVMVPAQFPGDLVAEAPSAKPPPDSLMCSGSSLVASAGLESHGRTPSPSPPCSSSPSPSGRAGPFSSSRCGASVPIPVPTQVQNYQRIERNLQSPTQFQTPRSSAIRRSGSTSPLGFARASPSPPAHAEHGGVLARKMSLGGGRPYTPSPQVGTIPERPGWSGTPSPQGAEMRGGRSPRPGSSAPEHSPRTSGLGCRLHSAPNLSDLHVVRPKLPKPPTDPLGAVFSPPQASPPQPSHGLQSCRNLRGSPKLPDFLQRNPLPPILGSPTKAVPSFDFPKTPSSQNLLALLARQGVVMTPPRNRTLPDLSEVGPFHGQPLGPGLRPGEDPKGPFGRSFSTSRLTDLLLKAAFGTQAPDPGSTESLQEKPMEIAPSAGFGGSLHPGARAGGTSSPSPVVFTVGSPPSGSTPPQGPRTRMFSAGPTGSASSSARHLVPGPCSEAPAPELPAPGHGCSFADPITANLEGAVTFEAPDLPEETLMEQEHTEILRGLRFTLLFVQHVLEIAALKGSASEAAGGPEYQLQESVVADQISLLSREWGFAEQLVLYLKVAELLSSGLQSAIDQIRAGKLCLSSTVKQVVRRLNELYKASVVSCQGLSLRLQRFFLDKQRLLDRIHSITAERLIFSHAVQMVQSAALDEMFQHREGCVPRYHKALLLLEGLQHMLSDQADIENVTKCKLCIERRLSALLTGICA

ULK1-nanoluc = target: T2, ULK1-nanoluc (Homo sapiens, UniProt O75385); assay: NanoBRET target engagement in live cells; type: cell-based; conditions: H2030 cells transfected with ULK1-nanoluc, Tracer K10, 2 hr
T2 construct: host or cells: H2030 cells (ATCC)
T2 sequence (O75385 1-1050): T1 sequence (O75385 1-1050)

ULK1 kinase = target: T3, ULK1 kinase (Homo sapiens, UniProt O75385); assay: Radiometric HotSpot kinase assay (Reaction Biology); type: biochemical; conditions: activity-based ULK1 kinase assay
T3 construct: purchased Reaction Biology
T3 sequence (O75385 1-1050): T1 sequence (O75385 1-1050)

ULK1 kinase domain = target: T4, ULK1 kinase domain (Homo sapiens, UniProt O75385); assay: Differential scanning fluorimetry (thermal shift); type: binding; conditions: 2 μM ULK1 kinase domain, 50 μM compound, vs DMSO reference
T4 construct: The protein expression construct of ULK1 kinase domain (1-283) was cloned; 6His-Sumo (N, cleaved yes); made in house; host or cells: E. coli BL21 star, co-expressed with lambda phosphatase
T4 sequence (O75385 1-283): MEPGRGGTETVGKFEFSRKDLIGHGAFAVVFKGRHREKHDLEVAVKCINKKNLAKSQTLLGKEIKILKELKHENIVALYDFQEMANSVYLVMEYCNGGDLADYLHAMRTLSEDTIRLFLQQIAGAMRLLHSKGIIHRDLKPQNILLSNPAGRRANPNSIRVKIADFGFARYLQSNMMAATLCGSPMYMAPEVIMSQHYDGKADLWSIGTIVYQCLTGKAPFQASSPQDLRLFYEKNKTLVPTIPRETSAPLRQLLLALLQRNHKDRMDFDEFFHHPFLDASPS

SMILES	IC50 (GST-ULK1)	EC50 (ULK1-nanoluc)	IC50 (ULK1 kinase)	ΔTm at 50 µM (ULK1 kinase domain)
O=C(NCC1(O)CC1)c1cc(-c2cnc3[nH]c(C4=CNCCC4)cc3c2)cs1 [Compound 108]	26 nM	219 nM	–	–
C[C@H](CO)NC(=O)c1cc(-c2cnc3[nH]c(C4=CCNC4)cc3c2)cs1 [Compound 105]	139 nM	≥ 10000 nM	–	–
C[C@@H](CO)NC(=O)c1cc(-c2cnc3[nH]c(C4=CCN(C)CC4)cc3c2)cs1 [Compound 107]	19 nM	391 nM	–	–
Fc1ccc(-c2cc3c(NC4CCC4)c(C(F)(F)F)cnc3[nH]2)cc1 [Compound 82, N-cyclobutyl-2-(4-fluorophenyl)-5-(trifluoro-methyl)-1H-pyrrolo[2,3-b]pyridin-4-amine]	24 nM	–	9 nM	4.39 °C
CC[C@@H](CO)NC(=O)c1cccc(-c2cnc3[nH]c(-c4ccc(F)cc4)cc3c2)c1 [Compound 54, (S)-3-(2-(4-Fluorophenyl)-1H-pyrrolo[2,3-b]pyridin-5-yl)-N-(1-hydroxybutan-2-yl)benzamide]	5850 nM	–	1470 nM	1.62 °C
CN1CC=C(c2cc3c(NCCCN4CCCC4)c(C(F)(F)F)cnc3[nH]2)CC1 [Compound 97, 2-(1-methyl-1,2,3,6-tetrahydropyridin-4-yl)-N-(3-(pyrrolidin-1-yl)propyl)-5-(trifluoro-methyl)-1H-pyrrolo[2,3-b]pyridin-4-amine]	541 nM	–	2380 nM	7.07 °C
O=C(NC[C@@H](O)CO)c1cccc(-c2cnc3[nH]c(-c4ccc(F)cc4)cc3c2)n1 [Compound 52, (R)—N-(2,3-Dihydroxypropyl)-6-(2-(4-fluorophenyl)-1H-pyrrolo[2,3-b]pyridin-5-yl)-picolinamide]	106 nM	–	45 nM	8.86 °C
CC(C)(C)OC(=O)N1CCC=C(c2cc3cc(-c4csc(C(=O)NCC(F)(F)F)c4)cnc3[nH]2)C1 [Compound 41, tert-Butyl 5-(5-(5-((2,2,2-trifluoroethyl)carbamoyl)thiophen-3-yl)-1H-pyrrolo[2,3-b]-pyridin-2-yl)-3,6-dihydropyridine-1(2H)-carboxylate]	75 nM	–	333 nM	9.89 °C
CN1CC=C(c2cc3c(NCCN4CCOCC4)c(C(F)(F)F)cnc3[nH]2)CC1 [Compound 99, 2-(1-methyl-1,2,3,6-tetrahydropyridin-4-yl)-N-(2-morpholinoethyl)-5-(trifluoromethyl)-1H-pyrrolo[2,3-b]pyridin-4-amine]	374 nM	–	625 nM	7.77 °C
CC[C@H](CO)NC(=O)c1nc(-c2cnc3[nH]c(-c4ccc(F)cc4)cc3c2)cs1 [Compound 62, (R)-4-(2-(4-Fluorophenyl)-1H-pyrrolo[2,3-b]pyridin-5-yl)-N-(1-hydroxybutan-2-yl)-thiazole-2-carboxamide]	182 nM	–	78 nM	4.81 °C
Fc1ccc(-c2cc3c(NCC(F)(F)F)c(C(F)(F)F)cnc3[nH]2)cc1 [Compound 81, 2-(4-fluorophenyl)-N-(2,2,2-trifluoroethyl)-5-(trifluoromethyl)-1H-pyrrolo[2,3-b]pyridin-4-amine]	14 nM	–	15 nM	5.41 °C
CS(=O)(=O)N1CCN(C(=O)c2cc(-c3cnc4[nH]c(-c5ccc(F)cc5)cc4c3)cs2)CC1 [Compound 29, (4-(2-(4-Fluorophenyl)-1H-pyrrolo[2,3-b]pyridin-5-yl)thiophen-2-yl)(4-(methyl-sulfonyl)piperazin-1-yl)methanone]	1230 nM	–	938 nM	0.9 °C
O=C(NC1CNC1)c1nc(-c2cnc3[nH]c(-c4ccc(F)cc4)cc3c2)cs1 [Compound 80, N-(azetidin-3-yl)-4-(2-(4-fluoro-phenyl)-1H-pyrrolo[2,3-b]pyridin-5-yl)thiazole-2-carboxamide]	966 nM	–	502 nM	4.99 °C
O=C(NC(CO)CO)c1cccc(-c2cnc3[nH]c(-c4ccc(F)cc4)cc3c2)c1 [Compound 49, N-(1,3-Dihydroxypropan-2-yl)-3-(2-(4-fluorophenyl)-1H-pyrrolo[2,3-b]pyridin-5-yl)benzamide]	543 nM	–	341 nM	5.11 °C
O=C(NC[C@@H](O)CO)c1cccc(-c2cnc3[nH]c(-c4ccc(F)cc4)cc3c2)c1 [Compound 48, (R)—N-(2,3-Dihydroxypropyl)-3-(2-(4-fluorophenyl)-1H-pyrrolo[2,3-b]pyridin-5-yl)benzamide]	475 nM	–	261 nM	4.52 °C
O=C(c1nc(-c2cnc3[nH]c(-c4ccc(F)cc4)cc3c2)cs1)N1CC(F)C1 [Compound 74, (3-fluoroazetidin-1-yl)(4-(2-(4-fluorophenyl)-1H-pyrrolo[2,3-b]-pyridin-5-yl)thiazol-2-yl)methanone]	665 nM	–	644 nM	1.87 °C
O=C(NCC1(O)CCCC1)c1nc(-c2cnc3[nH]c(-c4ccc(F)cc4)cc3c2)cs1 [Compound 72, 4-(2-(4-fluorophenyl)-1H-pyrrolo-[2,3-b]pyridin-5-yl)-N-((1-hydroxy-cyclopentyl)methyl)thiazole-2-carboxamide]	36 nM	–	50 nM	7.96 °C
C[C@H](CO)NC(=O)c1nc(-c2cnc3[nH]c(-c4ccc(F)cc4)cc3c2)cs1 [Compound 77, (R)-4-(2-(4-fluorophenyl)-1H-pyrrolo[2,3-b]pyridin-5-yl)-N-(1-hydroxypropan-2-yl)thiazole-2-carboxamide]	741 nM	–	348 nM	4.54 °C
FC1(F)CN(c2c(C(F)(F)F)cnc3[nH]c(C4=CCOCC4)cc23)C1 [Compound 86, 4-(3,3-Difluoroazetidin-1-yl)-2-(3,6-dihydro-2H-pyran-4-yl)-5-(trifluoromethyl)-1H-pyrrolo[2,3-b]pyridine]	172 nM	–	56 nM	6.82 °C
FC(F)(F)c1cnc2[nH]c(C3CCOCC3)cc2c1NCCCN1CCCC1 [Compound 90, N-(3-(pyrrolidin-1-yl)propyl)-2-(tetrahydro-2H-pyran-4-yl)-5-(trifluoromethyl)-1H-pyrrolo[2,3-b]pyridin-4-amine]	145 nM	–	155 nM	9.23 °C
FC(F)(F)c1cnc2[nH]c(C3=CCOCC3)cc2c1NC1CCNC1 (stereo not drawn) [Compound 84, 2-(3,6-dihydro-2H-pyran-4-yl)-N-(pyrrolidin-3-yl)-5-(trifluoromethyl)-1H-pyrrolo[2,3-b]pyridin-4-amine]	412 nM	–	549 nM	7.13 °C
FC(F)(F)c1cnc2[nH]c(C3=CCOCC3)cc2c1NCCCN1CCCC1 [Compound 91, 2-(3,6-dihydro-2H-pyran-4-yl)-N-(3-(pyrrolidin-1-yl)propyl)-5-(trifluoromethyl)-1H-pyrrolo[2,3-b]pyridin-4-amine]	167 nM	–	110 nM	9.77 °C
O=C(NC(CO)CO)c1nc(-c2cnc3[nH]c(-c4ccc(F)cc4)cc3c2)cs1 [Compound 63, N-(1,3-Dihydroxypropan-2-yl)-4-(2-(4-fluorophenyl)-1H-pyrrolo[2,3-b]pyridin-5-yl)-thiazole-2-carboxamide]	103 nM	–	55 nM	6.46 °C
O=C(NCC(O)C(F)(F)F)c1cccc(-c2cnc3[nH]c(-c4ccc(F)cc4)cc3c2)n1 (stereo not drawn) [Compound 57, 6-(2-(4-Fluorophenyl)-1H-pyrrolo[2,3-b]pyridin-5-yl)-N-(3,3,3-trifluoro-2-hydroxy-propyl)picolinamide]	20 nM	–	49 nM	8.73 °C
